According to patent US20130281512A1, “AGENTS FOR TREATING DISORDERS INVOLVING MODULATION OF RYANODINE RECEPTORS” (LES LABORATOIRES SERVIER, priority 2012, published 2013):
Like-named read-outs stand apart in the source and are kept apart here.

Legend:
RyR1 = biological target: T1, RyR1 (Mus musculus, UniProt E9PZQ0); test: Calstabin1 rebinding to RyR1 in isoproterenol treated mice; format: in vivo; conditions: isoproterenol 0.5 mg/kg/hr plus compound in osmotic pumps, five days; compared with 3.6 mM S36
T1 construct: RyR1 from aged (24 months) mice is oxidized, cysteine-nitrosylated, and depleted of calstabin1; host or cells: mice (in vivo)
From the text: Isoproterenol, a beta adrenergic receptor agonist, induces heart failure in mice via overstimulation of the beta adrenergic receptor. Concurrent with this is the activation of PKA, phosphorylation of the RyR2 on the SR, and decreased interaction of calstabin2 (FKBP12.6) to RyR2. A similar cascade of events occurs in skeletal muscle, wherein RyR1 is phosphorylated, leading to decreased binding of calstabin1 (FKBP12) to RyR1.
As described in detail in International publication no. WO2008/064264, the contents of which are incorporated by reference herein, chronic isoproterenol treatment to a wild-type mouse offers a fast and reliable method for inducing changes in RyR biochemistry that could be readily quantified. These changes include increased RyR phosphorylation and concomitant decreased calstabin binding.
C57Bl/6 mice were maintained and studied according to approved protocols. The synthetic beta-adrenergic agonist, isoproterenol (ISO) was obtained from Sigma (165627) and prepared as a 100 mg/ml stock in water. […]
The loaded osmotic pumps were implanted subcutaneously by the following steps. The recipient mouse was anesthetized with 1.5-2% isoflurane in O2 administered at 0.6 L/min, and its weight was then measured and recorded. […]

[1] = Morning blood exposure (drug plasma concentrations) in mdx and WT mice; format: in vivo; conditions: mouse, oral, read-out: Morning blood exposure (average±SEM)
Description: Distance traveled (Km/day) over a 24 hr period was analyzed as an index of improved functional activity (see, DMD_M.2.1.002 SOP at http://www.treat-nmd.eu/). At the conclusion of the study, Extensor digitorum longus (EDL) muscle was isolated for muscle force analysis as further described hereinbelow. Blood was collected from each mouse by retro-orbital bleeds at the end of the study (after end of dark cycle—about 7 AM) to assess drug plasma concentrations. Experiments were blinded.

human hepatocytes = test: Metabolic stability in human hepatocytes; format: in vitro ADME
Description: Compound solubilization: Stock solutions were made in DMSO, and working solutions in William medium containing 1/10 rat plasma or 1/4 human plasma.
Metabolic stability determination: Compounds were incubated at 10^−7 M with isolated hepatocytes (6E+5 cells/ml for rat hepatocytes and 4E+5 cells/ml for human hepatocytes) at 37° C. in plasma from the same species diluted in Wiliams medium (1/10 dilution for rat and 1/4 dilution for human). Sampling times were performed at 0, 10, 20, 30, 60 and 120 min and enzymatic reaction stopped with methanol (v/v). Proteins were precipitated by centrifugation and the supernatant was analyzed by LC/MS/MS. Clint expressed as ml/min/g protein were calculated as for hepatic microsomes using a ratio of 0.134 mg protein/ml for 4E+5 cells/ml for human and 0.201 mg protein/ml for 6E+5 cells/ml for rat. The presence of the reference drug and the potential metabolite was checked by LC/MS/MS during the assay in each sample.

T1 sequence (E9PZQ0 whole entry): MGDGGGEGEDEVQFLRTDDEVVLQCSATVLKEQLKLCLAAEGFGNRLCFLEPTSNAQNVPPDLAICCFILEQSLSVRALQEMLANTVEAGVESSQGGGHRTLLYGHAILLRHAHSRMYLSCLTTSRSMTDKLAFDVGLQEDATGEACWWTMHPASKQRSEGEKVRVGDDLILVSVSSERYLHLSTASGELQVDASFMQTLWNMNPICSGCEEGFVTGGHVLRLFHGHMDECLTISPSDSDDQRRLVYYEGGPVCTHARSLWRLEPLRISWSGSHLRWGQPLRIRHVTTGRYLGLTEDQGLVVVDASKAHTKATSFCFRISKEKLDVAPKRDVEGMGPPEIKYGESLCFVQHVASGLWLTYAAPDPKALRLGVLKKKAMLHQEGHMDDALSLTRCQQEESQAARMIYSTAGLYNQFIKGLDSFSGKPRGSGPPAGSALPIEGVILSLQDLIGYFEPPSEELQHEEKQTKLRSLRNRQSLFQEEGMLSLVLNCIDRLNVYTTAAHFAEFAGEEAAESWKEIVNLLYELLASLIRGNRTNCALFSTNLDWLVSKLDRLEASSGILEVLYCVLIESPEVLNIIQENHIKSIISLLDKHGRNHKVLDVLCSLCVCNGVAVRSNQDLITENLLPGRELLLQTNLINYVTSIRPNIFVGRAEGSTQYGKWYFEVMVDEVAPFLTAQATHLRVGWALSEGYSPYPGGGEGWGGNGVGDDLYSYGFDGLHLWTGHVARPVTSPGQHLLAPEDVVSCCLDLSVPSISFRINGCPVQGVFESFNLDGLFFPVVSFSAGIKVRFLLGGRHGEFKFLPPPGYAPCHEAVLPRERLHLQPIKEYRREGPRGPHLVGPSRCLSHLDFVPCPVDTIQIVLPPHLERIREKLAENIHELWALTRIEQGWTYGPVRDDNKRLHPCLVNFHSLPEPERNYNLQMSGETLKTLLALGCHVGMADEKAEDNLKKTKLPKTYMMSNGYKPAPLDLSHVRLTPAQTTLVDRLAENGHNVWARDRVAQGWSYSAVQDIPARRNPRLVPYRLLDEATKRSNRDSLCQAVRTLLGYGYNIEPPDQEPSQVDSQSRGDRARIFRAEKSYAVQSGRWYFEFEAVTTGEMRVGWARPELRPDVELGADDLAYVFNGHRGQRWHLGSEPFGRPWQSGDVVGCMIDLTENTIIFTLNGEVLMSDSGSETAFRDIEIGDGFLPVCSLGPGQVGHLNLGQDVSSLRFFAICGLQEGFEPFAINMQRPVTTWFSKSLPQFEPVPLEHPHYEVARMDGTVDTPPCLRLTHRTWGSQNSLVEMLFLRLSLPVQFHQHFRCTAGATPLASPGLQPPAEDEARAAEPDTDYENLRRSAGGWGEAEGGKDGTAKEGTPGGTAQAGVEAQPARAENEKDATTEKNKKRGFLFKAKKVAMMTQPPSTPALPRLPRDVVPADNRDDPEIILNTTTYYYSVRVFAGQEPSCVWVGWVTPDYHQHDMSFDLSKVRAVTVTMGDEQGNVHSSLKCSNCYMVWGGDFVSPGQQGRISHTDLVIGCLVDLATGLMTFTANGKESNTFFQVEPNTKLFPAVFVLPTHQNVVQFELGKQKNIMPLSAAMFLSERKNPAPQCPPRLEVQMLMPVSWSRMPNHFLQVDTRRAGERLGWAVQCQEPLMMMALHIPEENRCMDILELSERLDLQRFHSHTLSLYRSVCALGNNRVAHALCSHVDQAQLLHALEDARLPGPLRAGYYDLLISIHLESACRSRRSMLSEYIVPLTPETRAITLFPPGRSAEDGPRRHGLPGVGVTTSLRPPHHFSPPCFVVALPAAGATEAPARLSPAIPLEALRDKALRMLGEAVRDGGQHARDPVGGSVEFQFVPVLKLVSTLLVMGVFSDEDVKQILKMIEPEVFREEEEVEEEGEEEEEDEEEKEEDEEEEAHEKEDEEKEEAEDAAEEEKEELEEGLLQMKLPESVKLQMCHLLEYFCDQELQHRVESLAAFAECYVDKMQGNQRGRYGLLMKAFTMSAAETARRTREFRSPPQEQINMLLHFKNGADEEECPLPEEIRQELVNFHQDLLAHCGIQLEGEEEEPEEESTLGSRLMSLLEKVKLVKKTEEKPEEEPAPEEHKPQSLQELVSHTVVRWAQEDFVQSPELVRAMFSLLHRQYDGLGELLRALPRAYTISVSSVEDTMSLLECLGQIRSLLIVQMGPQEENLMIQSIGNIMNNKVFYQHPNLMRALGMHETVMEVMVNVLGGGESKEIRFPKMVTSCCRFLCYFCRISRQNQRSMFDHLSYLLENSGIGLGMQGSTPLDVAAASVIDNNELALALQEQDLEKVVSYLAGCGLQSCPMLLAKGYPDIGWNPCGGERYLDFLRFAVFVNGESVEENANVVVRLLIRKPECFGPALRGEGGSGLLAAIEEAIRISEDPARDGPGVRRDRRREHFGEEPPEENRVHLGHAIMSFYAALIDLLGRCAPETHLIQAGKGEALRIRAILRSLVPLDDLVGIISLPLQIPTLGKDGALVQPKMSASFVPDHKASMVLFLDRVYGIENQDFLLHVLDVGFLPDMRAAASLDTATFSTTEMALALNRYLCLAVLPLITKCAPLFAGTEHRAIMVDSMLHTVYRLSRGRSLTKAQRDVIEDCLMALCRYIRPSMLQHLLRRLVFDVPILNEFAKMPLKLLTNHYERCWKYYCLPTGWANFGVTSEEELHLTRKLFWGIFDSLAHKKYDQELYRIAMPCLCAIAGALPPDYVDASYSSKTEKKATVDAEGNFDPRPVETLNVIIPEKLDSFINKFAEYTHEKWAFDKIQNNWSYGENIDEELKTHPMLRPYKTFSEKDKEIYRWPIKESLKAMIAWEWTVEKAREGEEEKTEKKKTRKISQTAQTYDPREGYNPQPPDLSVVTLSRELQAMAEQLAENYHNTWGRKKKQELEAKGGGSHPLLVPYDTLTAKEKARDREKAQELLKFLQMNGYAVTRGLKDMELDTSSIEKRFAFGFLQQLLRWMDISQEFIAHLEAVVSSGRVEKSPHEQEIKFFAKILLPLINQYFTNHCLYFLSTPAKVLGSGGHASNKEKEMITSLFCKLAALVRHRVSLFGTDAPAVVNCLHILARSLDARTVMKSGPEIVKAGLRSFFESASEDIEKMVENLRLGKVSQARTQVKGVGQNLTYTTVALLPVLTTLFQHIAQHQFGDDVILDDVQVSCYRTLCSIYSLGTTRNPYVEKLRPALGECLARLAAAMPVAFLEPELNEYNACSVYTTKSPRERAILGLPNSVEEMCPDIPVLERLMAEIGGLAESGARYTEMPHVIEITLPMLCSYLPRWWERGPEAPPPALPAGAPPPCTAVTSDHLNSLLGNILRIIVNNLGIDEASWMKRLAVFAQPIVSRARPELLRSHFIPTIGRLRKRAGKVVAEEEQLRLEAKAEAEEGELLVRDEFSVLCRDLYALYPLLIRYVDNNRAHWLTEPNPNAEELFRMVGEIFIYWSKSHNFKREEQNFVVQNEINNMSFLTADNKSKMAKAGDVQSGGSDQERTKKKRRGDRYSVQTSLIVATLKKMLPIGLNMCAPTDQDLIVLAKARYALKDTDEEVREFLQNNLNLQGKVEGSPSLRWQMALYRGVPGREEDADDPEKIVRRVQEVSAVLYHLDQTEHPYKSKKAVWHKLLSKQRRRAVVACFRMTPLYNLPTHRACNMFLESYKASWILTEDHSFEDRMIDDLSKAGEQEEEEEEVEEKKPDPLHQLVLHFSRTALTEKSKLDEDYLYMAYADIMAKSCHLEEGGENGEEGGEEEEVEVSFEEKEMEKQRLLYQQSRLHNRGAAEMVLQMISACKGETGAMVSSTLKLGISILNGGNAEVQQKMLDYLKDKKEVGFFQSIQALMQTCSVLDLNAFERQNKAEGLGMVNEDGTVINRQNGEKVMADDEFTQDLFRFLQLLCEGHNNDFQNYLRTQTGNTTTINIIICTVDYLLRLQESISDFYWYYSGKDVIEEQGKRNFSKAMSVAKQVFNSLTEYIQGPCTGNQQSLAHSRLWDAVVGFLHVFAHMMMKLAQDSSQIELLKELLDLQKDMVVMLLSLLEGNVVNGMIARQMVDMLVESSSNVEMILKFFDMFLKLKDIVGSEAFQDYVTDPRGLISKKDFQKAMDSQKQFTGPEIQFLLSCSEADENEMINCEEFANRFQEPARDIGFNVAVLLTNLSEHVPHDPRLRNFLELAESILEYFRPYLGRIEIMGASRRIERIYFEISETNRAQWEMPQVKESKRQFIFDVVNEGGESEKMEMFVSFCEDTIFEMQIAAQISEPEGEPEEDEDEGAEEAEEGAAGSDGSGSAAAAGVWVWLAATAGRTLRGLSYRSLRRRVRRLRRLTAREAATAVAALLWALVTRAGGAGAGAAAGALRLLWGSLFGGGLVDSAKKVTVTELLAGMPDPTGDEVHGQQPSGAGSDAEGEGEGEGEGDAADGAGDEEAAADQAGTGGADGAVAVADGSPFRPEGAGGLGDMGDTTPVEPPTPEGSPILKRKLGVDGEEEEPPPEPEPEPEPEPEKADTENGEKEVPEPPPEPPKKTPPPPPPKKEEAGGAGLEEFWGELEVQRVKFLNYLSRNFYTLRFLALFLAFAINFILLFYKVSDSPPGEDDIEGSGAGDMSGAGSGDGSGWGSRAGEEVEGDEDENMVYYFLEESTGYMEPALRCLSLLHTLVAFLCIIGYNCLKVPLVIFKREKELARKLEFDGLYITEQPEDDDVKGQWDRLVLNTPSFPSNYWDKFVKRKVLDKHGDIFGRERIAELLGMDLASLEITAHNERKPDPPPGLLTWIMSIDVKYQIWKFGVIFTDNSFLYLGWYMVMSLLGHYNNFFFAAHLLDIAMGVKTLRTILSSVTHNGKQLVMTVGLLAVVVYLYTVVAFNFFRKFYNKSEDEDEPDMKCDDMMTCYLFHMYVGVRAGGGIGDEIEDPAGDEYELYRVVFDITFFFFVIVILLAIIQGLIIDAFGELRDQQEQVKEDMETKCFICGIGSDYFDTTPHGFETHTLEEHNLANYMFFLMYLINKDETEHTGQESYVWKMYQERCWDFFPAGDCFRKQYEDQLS
T1 sequence (P26883 2-108 partner limits assumed): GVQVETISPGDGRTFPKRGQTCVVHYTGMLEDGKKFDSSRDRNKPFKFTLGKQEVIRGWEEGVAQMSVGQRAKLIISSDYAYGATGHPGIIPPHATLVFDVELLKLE

With `COc1ccc2c(c1)CN(Cc1ccc(C(=O)O)cc1)CCS2` [Compound 1, 4-((7-Methoxy-2,3-dihydrobenzo[f][1,4]thiazepin-4(5H)-yl)methyl)benzoic acid] the “levels of calstabin1 bound to RyR1 in skeletal muscle” value (RyR1) was “enhanced levels of calstabin1 bound to RyR1”, the concentration at 4 weeks ([1]; C57BL/6 (WT), 50 mg/kg/d-dosed WT mice) was 72.8 ± 7 µM and the concentration at 4 weeks ([1]; C57BL/10ScSn-DMD^mdx/J (mdx), 5 mg/kg/d-dosed mdx mice) was 3.3 ± 0.4 µM. The concentration at 4 weeks ([1]; C57BL/10ScSn-DMD^mdx/J (mdx), 10 mg/kg/d-dosed mdx mice) was 10.7 ± 0.9 µM, the concentration at 4 weeks ([1]; C57BL/10ScSn-DMD^mdx/J (mdx), 50 mg/kg/d-dosed mdx mice) was 52.8 ± 1.7 µM and the MF human % (human hepatocytes) was 100%. It also gave a Clint (human hepatocytes; 4.00E+05 cells/ml, 10^-7 M) of 0 ml/min/gprot.
